The text below walks through data of US7829332B2, “Purines are self-renewal signals for neural stem cells, and purine receptor antagonists promote neuronal and glial differentiation therefrom” (Cornell Research Foundation, Inc., priority 2004, dated 2010).

The structures appear in SMILES notation.

Common to all, as to format: cell-based, mouse
Assay [1] relates to neural progenitor cells. The assay can be described thus: Calcium imaging (fluo-4/am) of Ca2+i responses in 1-2 day cultures. Here is the method:
Neuronal cultures were prepared from E16 mice and maintained as earlier described (Nedergaard, M., Science 263:1768-1771 (1994), which is hereby incorporated by reference in its entirety). Cytosine arabinoside (20 μM) was added at 48 hr to eliminate proliferating cells. Neural progenitor cells were isolated from E13 mice as previously described (Morshead et al., Neuron 13:1071-82 (1994); Reynolds et al., Science 255:1707-10 (1992), which are hereby incorporated by reference in their entirety). The forebrains were collected in a Ca/Mg-free Hank's buffered saline solution (HBSS) and dissociated in 0.25% trypsin. The cells were resuspended at 4×10^6 cells/ml in DMEM/F12/N2 containing 10 ng/ml bFGF and 10 ng/ml EGF (Sigma, St. Louis, Mo.). The cells were plated at 4 ml/dish into 100 mm suspension culture plates and incubated at 37° C. in 5% CO2. The cells were passaged 2 to 3 times before use.
To test the idea that purinergic signaling is restricted to undifferentiated neural precursor cells, Ca^2+ responses to ATP were first examined as a function of time after plating either neural stem cells or differentiated neurons. Cultured mouse cortical neurons in near-pure neuronal cultures were loaded with fluo-4/am and exposed to either ATP (100 μM) or K^+ (60 mM). […] The responses to ATP fell by day 3 and were absent 9 days after plating. […] By 30 hours after plating, MAP2-defined neurons expressed substantially less P2Y receptor-immunoreactivity than did neighboring, MAP2^− cells (FIG. 1C). By 5 days, P2Y-immunoreactivity was restricted to GFAP^+ astrocytes.
ATP-induced Ca^2+i increments were inhibited by both suramin (100 μM) and reactive blue (RB; 30 μM), two mechanistically-unrelated inhibitors of purinergic signaling (FIG. 1D).

For assay [2], the system named is neural stem cells. As to the kind of experiment: BrdU incorporation assay (mitotic index). The note with it: 4 hrs incubation. The procedure:
(§1) For the BrdU incorporation assay, the cultures were incubated for 4 hrs in BrdU (Sigma, 10 μg/ml, 4 hrs), fixed and stained with rat monoclonal anti-BrdU (MAS250C, Harlan Sera-lab, Loughborough, UK; 1:200) and Cy3-conjugated goat anti-rat antibodies (Jackson ImmunoResearch, 1:300). Nuclei were visualized by Sytox (Molecular Probes, Inc.), and the mitotic index was calculated as the ratio of BrdU/Sytox positive nuclei. Limiting dilution analysis was performed as previously described (Keyoung et al., Nature Biotechnology 19:843-850 (2001); Uchida et al., Proc. Natl. Acad. Sci. 97:14720-14725 (2000), which are hereby incorporated by reference in their entirety).
Purinergic signaling has long-term effects on proliferation of numerous cell types, including rapidly replicating transformed cell lines (Burnstock, G., Arterioscler Thromb Vasc Biol 22:364-73 (2002); Michoud et al., Am J Respir Cell Mol Biol 27:732-8 (2002); Sauer et al., J Cell Sci 115:3265-73 (2002); Tu et al., Br J Pharmacol 129:1481-9 (2000), which are hereby incorporated by reference in their entirety). To better define the mitogenic effects of P2Y on neural progenitor cells, the mitogenic effects of ATP, its analogs, and its dephosphorylated metabolites were compared. To this end, BrdU incorporation by neural stem cells was quantified after 4 hrs incubation in each treatment.

In assay [3] the test system is neural progenitors. As to the kind of experiment: Limiting dilution analysis of dissociated neurospheres. The note with it: for minimum density at which cells remain viable and expand: low density cultures. Here is the method:
as §1
To assess the requirement of P2Y signaling in self-renewal, neurospheres were dissociated to low density cultures and limiting dilution analysis performed, in the presence or absence of either suramin or RB. […] Thus, purinergic receptor activation was required not only for continued proliferation of neural progenitors, but also for survival at low plating densities.

The test system of assay [4] is neurospheres. The assay can be described thus: Flow cytometry of S-phase fraction and P27 expression. The conditions noted are these: for P27 expression: suramin 300 μM, RB 40 μM (FIG. 3D); for fraction of cells in S-phase: treated cultures, untreated control 16.4%±1.8%, p<0.001. Here is the method:
Cultures were stained for nestin (monoclonal clone Rat 401, IgG1, or rabbit antiserum, Chemicon, Temecula, Calif.; 1:2000), neuronal class III β-tubulin (monoclonal clone TuJ1, IgG2a, Covance, Philadelphia, Pa.; 1:500), MAP-2 (2a+2b) (monoclonal clone AP-20, ascites fluid, Sigma, St. Louis, Mo.; 1:500), Neuronal protein HuC/HuD (monoclonal 16A11, Molecular Probes, Eugene, Oreg.; 15 μg/ml), O4 (monoclonal IgM supernatant; O4 hybridoma, or GFAP (mouse clone GA5, or rabbit antiserum, Sigma; 1:500,), purinergic receptors P2Y1, P2Y2, P2Y4 (polyclonal, Alomone Labs, Jerusalem, Israel, 1:200), p27 (polyclonal, Chemicon, 1:2000), cyclins D1 and E (polyclonal, H-295 and M-20, respectively, Santa Cruz Biotechnology, Santa Cruz, Calif.; 1:100), Secondary antibodies were FITC-conjugated goat anti-mouse IgM (μ-chain specific, Sigma; 1:500), Cy3-conjugated goat-anti-rabbit IgG (H+ L) (1:200), Cy5-conjugated Goat-anti-mouse IgG (H+L) (both from Jackson ImmunoResearch, West Grove, Pa.; 1:100). Nuclei were counter-stained with Sytox Green or propidium iodide (Molecular Probes). P27, cyclin D and cyclin E FACS analyses were performed on an EPICS ELITE ESP flow cytometer/cell sorter (Beckman Coulter), as described (Deptala et al., Int J Oncol 15:861-71 (1999), which is hereby incorporated by reference in its entirety). The analysis of ectonucleotidase activity was adapted from Braun et al., “Expression of the Ecto-ATPase NTPDase2 in the Germinal Zones of the Developing and Adult Rat Brain,” Eur. J. Neurosci. 17:1355-64 (2003), which is hereby incorporated by reference in its entirety. Cryostat sections from paraformaldehyde-perfused animals were utilized. All experiments used either inosine diphosphate (IDP), adenosine diphosphate (ADP), or adenosine triphosphate (ATP) as substrate (1 mM), whereas substrate was omitted from controls.
The inhibition of proliferation afforded by suramin and RB was reversible. The percentage of cells in S-phase recovered by 50% at 8 h and by 80% at 24 hr after wash-out of the drugs.
On the technique in general: A flow cytometer gives signals particle by particle.

Assay [5] has as its system neural spheres. As to the kind of experiment: Lineage potential by clonal expansion and immunostaining. The note with it: 5 day exposure, then 7 days without inhibitors. Here is the method: Cultures were stained for nestin (monoclonal clone Rat 401, IgG1, or rabbit antiserum, Chemicon, Temecula, Calif.; 1:2000), neuronal class III β-tubulin (monoclonal clone TuJ1, IgG2a, Covance, Philadelphia, Pa.; 1:500), MAP-2 (2a+2b) (monoclonal clone AP-20, ascites fluid, Sigma, St. Louis, Mo.; 1:500), Neuronal protein HuC/HuD (monoclonal 16A11, Molecular Probes, Eugene, Oreg.; 15 μg/ml), O4 (monoclonal IgM supernatant; O4 hybridoma, or GFAP (mouse clone GA5, or rabbit antiserum, Sigma; 1:500,), purinergic receptors P2Y1, P2Y2, P2Y4 (polyclonal, Alomone Labs, Jerusalem, Israel, 1:200), p27 (polyclonal, Chemicon, 1:2000), cyclins D1 and E (polyclonal, H-295 and M-20, respectively, Santa Cruz Biotechnology, Santa Cruz, Calif.; 1:100), Secondary antibodies were FITC-conjugated goat anti-mouse IgM (μ-chain specific, Sigma; 1:500), Cy3-conjugated goat-anti-rabbit IgG (H+ L) (1:200), Cy5-conjugated Goat-anti-mouse IgG (H+L) (both from Jackson ImmunoResearch, West Grove, Pa.; 1:100). Nuclei were counter-stained with Sytox Green or propidium iodide (Molecular Probes). P27, cyclin D and cyclin E FACS analyses were performed on an EPICS ELITE ESP flow cytometer/cell sorter (Beckman Coulter), as described (Deptala et al., Int J Oncol 15:861-71 (1999), which is hereby incorporated by reference in its entirety). […]

`Nc1c(S(=O)(=O)O)cc(Nc2ccc(Nc3nc(Cl)nc(Nc4cccc(S(=O)(=O)O)c4)n3)c(S(=O)(=O)O)c2)c2c1C(=O)c1ccccc1C2=O` [RB, reactive blue 2]: the “inhibition of ATP-induced Ca2+i increments” value in assay [1] (reactive blue 30 μM) is given as “inhibited”. Also, the “proliferation (BrdU incorporation)” value in assay [2] is on record as “inhibited proliferation in a dose-dependent manner”. Also, in assay [3], the “minimum density at which cells remain viable and expand” value is reported as “increased the minimum density”; the “survival at low plating densities” value was “died by 5 days in vitro”. Besides, in assay [4], the P27 expression entry is “rose more strongly” and the “fraction of cells in S-phase” value came out at 5.7±0.3%. Also, in assay [5], the “lineage potential of exposed progenitor cells” value was “neither suramin nor RB restricted the lineage potential”.
`Cc1ccc(C(=O)Nc2ccc(S(=O)(=O)O)c3cc(S(=O)(=O)O)cc(S(=O)(=O)O)c23)cc1NC(=O)c1cccc(NC(=O)Nc2cccc(C(=O)Nc3cc(C(=O)Nc4ccc(S(=O)(=O)O)c5cc(S(=O)(=O)O)cc(S(=O)(=O)O)c45)ccc3C)c2)c1` [suramin]: in assay [1] (suramin 100 μM), the “inhibition of ATP-induced Ca2+i increments” value is on record as “inhibited”. Moreover, the “proliferation (BrdU incorporation)” value in assay [2] is on record as “inhibited proliferation in a dose-dependent manner”. Moreover, in assay [3], the “minimum density at which cells remain viable and expand” value was “increased the minimum density”; the “survival at low plating densities” value is listed as “died by 5 days in vitro”. Also, in assay [4], the P27 expression result is on record as “increase in the tumor suppressor P27” and the “fraction of cells in S-phase” value was found to be 8.4±2.3%. Moreover, in assay [5], the “lineage potential of exposed progenitor cells” value is reported as “neither suramin nor RB restricted the lineage potential”.
